Source: PubChem BioAssay (NCI)
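All cell lines were grown in 96-well plates and treated with compound for 48 hours. At the TGI there is no net growth.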

Tests used:
Assay in all cases: inhibition of tumour cell growth, NCI panel, 48 h
[1] = test system: UACC-257 melanoma
[2] = test system: HT29 colon
[3] = test system: HS 578T breast
[4] = test system: ACHN renal
[5] = test system: SR leukemia
[6] = test system: NCI/ADR-RES ovarian
[7] = test system: KM12 colon
[8] = test system: IGROV1 ovarian
[9] = test system: NCI-H23 lung
[10] = test system: SK-MEL-28 melanoma
[11] = test system: MDA-MB-231 breast
[12] = test system: DU-145 prostate
[13] = test system: NCI-H460 lung
[14] = test system: OVCAR-3 ovarian
[15] = test system: HCT-15 colon
[16] = test system: SK-MEL-5 melanoma
[17] = test system: SF-268 CNS
[18] = test system: NCI-H522 lung
[19] = test system: SW-620 colon
[20] = test system: BT-549 breast
[21] = test system: MOLT-4 leukemia
[22] = test system: SN12C renal
[23] = test system: MDA-N
[24] = test system: U251 CNS
[25] = test system: 786-0 renal
[26] = test system: CCRF-CEM leukemia
[27] = test system: LOX IMVI melanoma
[28] = test system: UO-31 renal
[29] = test system: A549 NSCLC
[30] = test system: OVCAR-4 ovarian
[31] = test system: SNB-75 CNS
[32] = test system: MALME-3M melanoma
[33] = test system: OVCAR-8 ovarian
[34] = test system: EKVX NSCLC
[35] = test system: HCC-2998 colon
[36] = test system: SF-539 CNS
[37] = test system: CAKI-1 renal
[38] = test system: RPMI-8226 leukemia
[39] = test system: HOP-62 NSCLC
[40] = test system: SK-MEL-2 melanoma
[41] = test system: PC-3 prostate
[42] = test system: OVCAR-5 ovarian
[43] = test system: TK-10 renal
[44] = test system: M14 melanoma
[45] = test system: MDA-MB-435
[46] = test system: SNB-19 CNS
[47] = test system: UACC-62 melanoma
[48] = test system: NCI-H226 lung
[49] = test system: HOP-92 NSCLC
[50] = test system: K-562 leukemia
[51] = test system: HCT-116 colon
[52] = test system: A498 renal
[53] = test system: COLO 205 colon
[54] = test system: SF-295 CNS
[55] = test system: SK-OV-3 ovarian
[56] = test system: HL-60(TB) leukemia
[57] = test system: RXF 393 renal
[58] = test system: MCF7 breast
[59] = test system: T-47D breast

Q: With `CC(=O)ON(C(C)=O)c1ccc(-c2nc3ccccc3s2)cc1C` as the compound, how does the TGI [1] read?
A: > 100 µM

Q: And the TGI [2]?
A: > 100 µM

Q: And the TGI [3]?
A: > 100 µM

Q: And the TGI [4]?
A: > 100 µM

Q: What about the TGI [5] of the same compound?
A: > 100 µM

Q: And the TGI [6]?
A: > 100 µM

Q: And the TGI [7]?
A: > 100 µM

Q: And the TGI [8]?
A: > 100 µM

Q: And the TGI [9]?
A: > 100 µM

Q: And the TGI [10]?
A: > 100 µM

Q: And the TGI [11]?
A: > 100 µM

Q: And the TGI [12]?
A: > 100 µM

Q: What about the TGI [13] of the same compound?
A: > 100 µM

Q: And the TGI [14]?
A: > 100 µM

Q: And the TGI [15]?
A: > 100 µM

Q: And the TGI [16]?
A: > 100 µM

Q: What about the TGI [17] of the same compound?
A: > 100 µM

Q: What about the TGI [18] of the same compound?
A: > 100 µM

Q: And the TGI [19]?
A: > 100 µM

Q: What about the TGI [20] of the same compound?
A: > 100 µM

Q: And the TGI [21]?
A: > 100 µM

Q: What about the TGI [22] of the same compound?
A: > 100 µM

Q: And the TGI [23]?
A: > 100 µM

Q: What about the TGI [24] of the same compound?
A: > 100 µM

Q: And the TGI [25]?
A: > 100 µM

Q: What about the TGI [26] of the same compound?
A: > 100 µM

Q: What about the TGI [27] of the same compound?
A: > 100 µM

Q: What about the TGI [28] of the same compound?
A: > 100 µM

Q: What about the TGI [29] of the same compound?
A: > 100 µM

Q: What about the TGI [30] of the same compound?
A: > 100 µM

Q: And the TGI [31]?
A: > 100 µM

Q: What about the TGI [32] of the same compound?
A: > 100 µM

Q: And the TGI [33]?
A: > 100 µM

Q: What about the TGI [34] of the same compound?
A: > 100 µM

Q: And the TGI [35]?
A: > 100 µM

Q: And the TGI [36]?
A: > 100 µM

Q: And the TGI [37]?
A: > 100 µM

Q: And the TGI [38]?
A: > 100 µM

Q: What about the TGI [39] of the same compound?
A: > 100 µM

Q: What about the TGI [40] of the same compound?
A: > 100 µM

Q: What about the TGI [41] of the same compound?
A: > 100 µM

Q: What about the TGI [42] of the same compound?
A: 55.2 µM

Q: What about the TGI [43] of the same compound?
A: > 100 µM

Q: And the TGI [44]?
A: > 100 µM

Q: And the TGI [45]?
A: > 100 µM

Q: What about the TGI [46] of the same compound?
A: > 100 µM

Q: What about the TGI [47] of the same compound?
A: > 100 µM

Q: What about the TGI [48] of the same compound?
A: > 100 µM

Q: And the TGI [49]?
A: > 100 µM

Q: What about the TGI [50] of the same compound?
A: > 100 µM

Q: What about the TGI [51] of the same compound?
A: > 100 µM

Q: And the TGI [52]?
A: 16.9 µM

Q: What about the TGI [53] of the same compound?
A: > 100 µM

Q: What about the TGI [54] of the same compound?
A: > 100 µM

Q: `N#CCCN(CCN(CCC#N)C(=O)Nc1ccccc1)C(=O)Nc1ccccc1` was tested. Which TGI [1] did it give?
A: > 100 µM

Q: What about the TGI [55] of the same compound?
A: > 100 µM

Q: What about the TGI [56] of the same compound?
A: > 100 µM

Q: What about the TGI [2] of the same compound?
A: > 100 µM

Q: What about the TGI [3] of the same compound?
A: > 100 µM

Q: What about the TGI [4] of the same compound?
A: > 100 µM

Q: What about the TGI [5] of the same compound?
A: > 100 µM

Q: What about the TGI [6] of the same compound?
A: > 100 µM

Q: And the TGI [8]?
A: > 100 µM

Q: And the TGI [9]?
A: > 100 µM

Q: And the TGI [57]?
A: 75.3 µM

Q: And the TGI [10]?
A: > 100 µM

Q: And the TGI [11]?
A: > 100 µM

Q: What about the TGI [12] of the same compound?
A: > 100 µM

Q: And the TGI [13]?
A: > 100 µM

Q: What about the TGI [15] of the same compound?
A: > 100 µM

Q: And the TGI [16]?
A: > 100 µM

Q: And the TGI [17]?
A: 87.9 µM

Q: And the TGI [18]?
A: 98.4 µM

Q: And the TGI [19]?
A: > 100 µM

Q: What about the TGI [20] of the same compound?
A: > 100 µM

Q: What about the TGI [21] of the same compound?
A: > 100 µM

Q: And the TGI [22]?
A: > 100 µM

Q: And the TGI [23]?
A: > 100 µM

Q: And the TGI [24]?
A: > 100 µM

Q: And the TGI [25]?
A: > 100 µM

Q: And the TGI [26]?
A: > 100 µM

Q: What about the TGI [27] of the same compound?
A: > 100 µM

Q: And the TGI [58]?
A: > 100 µM

Q: What about the TGI [28] of the same compound?
A: > 100 µM

Q: And the TGI [29]?
A: > 100 µM

Q: What about the TGI [31] of the same compound?
A: 47.8 µM

Q: What about the TGI [32] of the same compound?
A: > 100 µM

Q: What about the TGI [33] of the same compound?
A: > 100 µM

Q: What about the TGI [34] of the same compound?
A: > 100 µM

Q: And the TGI [35]?
A: > 100 µM

Q: And the TGI [38]?
A: > 100 µM

Q: And the TGI [39]?
A: 55 µM

Q: What about the TGI [40] of the same compound?
A: > 100 µM

Q: What about the TGI [41] of the same compound?
A: > 100 µM

Q: And the TGI [42]?
A: > 100 µM

Q: And the TGI [59]?
A: > 100 µM

Q: And the TGI [43]?
A: > 100 µM

Q: What about the TGI [44] of the same compound?
A: > 100 µM

Q: And the TGI [46]?
A: > 100 µM

Q: What about the TGI [47] of the same compound?
A: > 100 µM

Q: What about the TGI [48] of the same compound?
A: > 100 µM

Q: What about the TGI [49] of the same compound?
A: > 100 µM

Q: And the TGI [50]?
A: > 100 µM

Q: What about the TGI [51] of the same compound?
A: > 100 µM

Q: What about the TGI [52] of the same compound?
A: > 100 µM

Q: And the TGI [53]?
A: > 100 µM

Q: And the TGI [54]?
A: > 100 µM
